These results are taken from patent publication US5922740A, “Heterocyclylcarbonyl substituted benzofuranyl-ureas” (Bayer Aktiengesellschaft, priority 1995, dated 1999).

One assay deals with human monocytes. In words: Endotoxin induced TNF release. It is filed as cell-based. The settings on record: LPS 2 μg ml^-1, 18 to 24 hours, ELISA. The procedure:
7. Preparation of Human Monocytes
Blood was taken from normal donors. Monocytes were isolated from peripheral blood by density centrifugation, followed by centrifugal elutriation.
8. Endotoxin Induced TNF Release
Monocytes (1×10^6 ml^-1) were stimulated with LPS (2 μg ml^-1) and coincubated with the compounds at different concentrations (10^-4 to 10 μg ml^-1) Compounds were dissolved in DMSO/medium (2% v/v). The cells were incubated in RPMI-1640 medium glutamine/FCS supplemented and at 37° C. in a humidified atmosphere with 5% CO2. After 18 to 24 hours TNF was determined in the supernatants by an human TNF specific ELISA (medgenix). Controls were nonstimulated and LPS stimulated monocytes without compounds. Example 2, 13 and 16 induce inhibition of LPS driven TNF activity in human monocytes (IC50 : 10^-3 to 1 μg ml^-1).

For a further assay, the system named is B6D2F1 mice. In words: Endotoxin induced shock lethality in mice. It is filed as in vivo. The settings on record: galactosamine-sensitized mice, LPS 0.01 μg/mouse; compound intravenously 1 hour prior LPS, doses of 3 to 30 mg/kg. On the procedure: 9. Endotoxin Induced Shock Lethality in Mice
B6D2F1 mice (n=10) were sensitized with galactosamine (600 mg/kg), and shock and lethality were triggered by LPS (0.01 μg/mouse). The compounds were administered intravenously 1 hour prior LPS. Controls were LPS challenged mice without compound. Mice were dying 8 to 24 hours post LPS challenge. Example 2, 13 and 16 reduced the endotoxin medicated mortality about 70% to 100% at doses of 3 to 30 mg/kg.

Each structure is given as a SMILES string.

On to `COc1ccc2c(NC(N)=O)c(C(=O)c3ccncc3)oc2c1` [Example 2], for which, in the assay with human monocytes, the “IC50, inhibition of LPS driven TNF activity” value (“IC50, inhibition” below) is reported as 10^-3 to 1 μg ml^-1. Besides, the “reduction of endotoxin mediated mortality” value (from here on “reduction”) in the assay on B6D2F1 mice is listed as 70% to 100.

For `CC[n+]1ccc(C(=O)c2oc3cc(OC)ccc3c2NC(N)=O)cc1` [Example 13], the “IC50, inhibition” value in the assay on human monocytes is 10^-3 to 1 μg ml^-1. The “reduction” value in the assay with B6D2F1 mice was 70% to 100.

Regarding `Cc1ccc2c(NC(N)=O)c(C(=O)c3cccnc3)oc2c1` [Example 16], the “IC50, inhibition” value in the assay on human monocytes is 10^-3 to 1 μg ml^-1. Besides, the “reduction” value in the assay on B6D2F1 mice was 70% to 100.
